Values joined by “and” are separate entries in the source; they are usually repeats but may differ in a detail not shown here. Equal entries are not always repeated. Active and inactive are the calls of the source. No cut-off for these calls is given here.
Columns and labels:
Canis lupus familiaris = organism: Canis lupus familiaris; test: Inhibition of Mongrel dog ventricular muscle cAMP phosphodiesterase using adenosine 3',5' monophosphate as substrate at 100 uM by scintillation counting analysis in presence of [8-14C]adenosine relative to control
Rattus norvegicus [1] = test: Antiallergic activity in Sprague-Dawley rat assessed as inhibition of ovalbumin-induced wheal formation at 25 mg/kg, ip administered 5 mins prior to ovalbumin challenge measured after 30 mins by passive cutaneous anaphylaxis assay relative to control; assay type: functional; details: route intraperitoneal; for inhibition in vivo at 25 mg/kg: Rattus norvegicus, Sprague-Dawley, ip
[2] = Antiallergic activity in antiovalbumin serum sensitized guinea pig lung slices assessed as inhibition of ovalbumin-induced histamine release at 100 uM preincubated for 5 mins followed by ovalbumin challenge measured after 15 mins by fluorometric analysis relative to control; assay type: functional, Cavia porcellus; details: for inhibition at 100 µM: Cavia porcellus, Lung
Rattus norvegicus [3] = test: Antiallergic activity in Sprague-Dawley rat assessed as inhibition of ovalbumin-induced wheal formation at 25 mg/kg, po administered 10 mins prior to ovalbumin challenge measured after 30 mins by passive cutaneous anaphylaxis assay relative to control; assay type: functional
Rattus norvegicus [4] = test: Antiallergic activity in Sprague-Dawley rat assessed as inhibition of serotonin-induced wheal formation at 25 mg/kg, ip administered 5 mins prior to serotonin challenge measured 5 mins post serotonin challenge relative to control; assay type: functional
Rattus norvegicus [5] = test: Antiallergic activity in ip dosed Sprague-Dawley rat assessed as inhibition of ovalbumin-induced wheal formation administered 5 mins prior to ovalbumin challenge measured after 30 mins by passive cutaneous anaphylaxis assay; assay type: functional
Rattus norvegicus [6] = test: Antiallergic activity in Sprague-Dawley rat assessed as inhibition of ovalbumin-induced wheal formation at 6 mg/kg, ip administered 5 mins prior to ovalbumin challenge measured after 30 mins by passive cutaneous anaphylaxis assay relative to control; assay type: functional; details: route intraperitoneal
[7] = Antiallergic activity in antiovalbumin serum sensitized guinea pig lung slices assessed as inhibition of ovalbumin-induced histamine release at 0.3 uM preincubated for 5 mins followed by ovalbumin challenge measured after 15 mins by fluorometric analysis relative to control; assay type: functional; details: Cavia porcellus
[8] = Antiallergic activity in antiovalbumin serum sensitized guinea pig lung slices assessed as inhibition of ovalbumin-induced histamine release at 1.5 mM preincubated for 5 mins followed by ovalbumin challenge measured after 15 mins by fluorometric analysis relative to control; assay type: functional; details: Cavia porcellus

| inhibition (Canis lupus familiaris) | SMILES | inhibition in vivo at 25 mg/kg (Rattus norvegicus [1]) [%] | inhibition at 100 µM [2] [%] | also measured |
| --- | --- | --- | --- | --- |
| 83% | COc1cc2c(cc1O)C(c1ccccc1)=NCC2 | 46 | 36 |  |
| 7% | c1ccc(C2NCCc3ccccc32)cc1 (stereo unspecified) | 17 | 46 |  |
| 46% | COc1cc2c(cc1OC)C(c1ccccc1)NCC2.Cl (stereo unspecified) | 52 | 49 | inhibition in vivo at 25 mg/kg (Rattus norvegicus [3]): 7%; inhibition (Rattus norvegicus [4]): inactive; ED50 (Rattus norvegicus [5]): 34 mg/kg |
|  | O=C(O)c1cc(=O)c2c(OCC(O)COc3cccc4oc(C(=O)O)cc(=O)c34)cccc2o1 [CROMOLYN SODIUM] |  |  | inhibition in vivo at 6 mg/kg (Rattus norvegicus [6]): 52% |
| 42% | c1ccc(C2=NCCc3ccccc32)cc1 | 0 | 17 |  |
| 56% | COc1cc2c(cc1OC)C(c1ccccc1OC)=NCC2 | 36 |  |  |
|  | CC(C)NCC(O)c1ccc(O)c(O)c1 (stereo unspecified) [ISOPROTERENOL] |  |  | inhibition at 0.3 µM [7]: 49% |
| 45% | COc1cc2c(cc1OC)C(Cc1cc(OC)c(OCc3ccccc3)cc1Br)NCC2 (racemic) | 0 | 27 |  |
| 84% | COc1cc2c(cc1OC)C(c1cccc(C(F)(F)F)c1)NCC2 (stereo unspecified) | 29 | 55 |  |
|  | Cn1c(=O)c2nc[nH]c2n(C)c1=O [THEOPHYLLINE] |  |  | inhibition at 1500 µM [8]: 50% |
| 0% | CCOC(=O)C(=O)N1CCc2cc(OC)c(OCc3ccccc3)cc2C1c1ccccc1 (stereo unspecified) | 18 | 0 |  |
| 95% | COc1cc2c(cc1OC)C(c1cccc(C(F)(F)F)c1)=NCC2 | 35 | 16 |  |
| 64% | COc1cc2c(cc1OC)C1C(=O)Cc3ccccc3CN1CC2 (stereo unspecified) | 18 | 43 |  |
| 44% | Clc1ccc2c(c1)C(c1ccccc1)=NCC2 | 34 | 0 |  |
|  | COc1cc2c(cc1OC)C(c1ccccc1)=NCC2 [listing 1 of 2 here] |  |  | inhibition (INH) (Rattus norvegicus [1]): 31%; inhibition (INH) [2]: 91% |
| 95% | COc1cc2c(cc1OCc1ccccc1)C(c1ccccc1)=NCC2 | 36 | 18 |  |
| 71% | COc1cc2c(cc1OC)C(c1ccc(C(C)(C)C)cc1)NCC2.Cl (stereo unspecified) | 37 | 13 | inhibition in vivo at 25 mg/kg (Rattus norvegicus [3]): 9%; inhibition (Rattus norvegicus [4]): inactive; ED50 (Rattus norvegicus [5]): 24 mg/kg |
| 70% | COc1cc2c(cc1OC)C(C1CCCCC1)=NCC2 | 18 |  |  |
| 33% | COc1cc2c(cc1OC)C(c1nccc3cc(OC)c(OC)cc13)OC2=O (stereo unspecified) | 16 |  |  |
| 55% | COc1cc2c(cc1OC)C(Cc1cc(OCc3ccccc3)c(OC)cc1Br)NCC2 (racemic) | 0 | 33 |  |
| 19% | COc1cc2c(cc1OC)C(C1CCCCC1)NCC2 (stereo unspecified) | 49 | 66 | inhibition in vivo at 25 mg/kg (Rattus norvegicus [3]): 8% |
| 34% | COc1cc2c(cc1OC)C(c1ccccc1OC)NCC2 (stereo unspecified) | 24 | 46 |  |
| 12% | COc1ccc2c(c1)C(c1ccccc1)NCC2.Cl (stereo unspecified) | 41 | 60 | inhibition in vivo at 25 mg/kg (Rattus norvegicus [3]): 40%; inhibition (Rattus norvegicus [4]): inactive; ED50 (Rattus norvegicus [5]): 24 mg/kg |
| 34% | COc1cc2c(cc1OCc1ccccc1)C(c1ccccc1)NCC2 (racemic) | 29 | 56 | inhibition in vivo at 25 mg/kg (Rattus norvegicus [4]; route intraperitoneal): 29% |
| 19% | COc1cc2c(cc1O)C(c1ccccc1)NCC2 (stereo unspecified) | 43 | 25 | inhibition in vivo at 25 mg/kg (Rattus norvegicus [3]): 6% |
| 97% and 91% | COc1cc2c(cc1OC)C(c1ccccc1)=NCC2 [listing 2 of 2 here] |  |  |  |
|  | CI.COc1cc2c(cc1OC)C(c1ccccc1)=NCC2 | 22 |  | inhibition (INH) [2]: 63% |
| 4% | Cc1ccc2c(c1)C(c1ccccc1)NCC2 (stereo unspecified) | 51 | 0 | inhibition in vivo at 25 mg/kg (Rattus norvegicus [3]): 17% |
| 53% | Cc1ccc2c(c1)C(c1ccccc1)=NCC2 | 23 | 6 |  |

| SMILES | inhibition (Canis lupus familiaris) | inhibition in vivo at 25 mg/kg (Rattus norvegicus [1]) [%] | inhibition at 100 µM [2] [%] | also measured |
| --- | --- | --- | --- | --- |
| Cn1c(=O)c2[nH]cnc2n(C)c1=O | 51% |  |  |  |
| c1ccc2c(c1)CCNC2 | 0% | 18 | 31 |  |
